{"source": "patent US20220313698A1", "about": "“MODULATORS OF CYSTIC FIBROSIS TRANSMEMBRANE CONDUCTANCE REGULATOR” (Vertex Pharmaceuticals Incorporated, priority 2019, published 2022)", "key": {"[1]": {"details": "snar bond, 15-membered ring"}, "[2]": {"molecular_target": "T1, CFTR-mediated chloride transport (Homo sapiens, UniProt P13569)", "experiment": "Corrector Assay A - membrane potential dye assay (enteroid cells)"}, "[3]": {"molecular_target": "T1, CFTR-mediated chloride transport", "experiment": "Corrector Assay B - membrane potential dye assay (enteroid cells);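 further: methyl oxonol membrane potential fluorescence followed over 15 min after switching to chloride-free buffer with forskolin, 100 µM IBMX and ivacaftor, in presence of CaCC blockers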"}}, "note": "Where “and” joins values, the source holds several entries; their conditions need not be identical. Identical values can stand only once. Like-named read-outs stand apart in the source and are kept apart here.", "data": [{"smiles": "C=CC1CC[C@@H]2CN(c3nc(C(C)(C)C)ccc3C(=O)NS(=O)(=O)c3cccc(n3)N1)C(C)(C)C2", "note": "(stereo partly drawn)", "values": [{"measurement": "ring closure, isolated yield", "setting": "[1]; from C=CC(CC[C@@H]1CN(C(=O)OC(C)(C)C)C(C)(C)C1)Nc1cccc(S(=O)(=O)NC(=O)c2ccc(C(C)(C)C)nc2F)n1, K2CO3, NMP, 159.0 mM, 150.0 °C, 2 steps", "value": "22% and 25%"}]}, {"smiles": "CC(C)(C)CC1CNc2cccc(n2)S(=O)(=O)NC(=O)c2ccc(-n3ccc(OCCC4C5(CC5)C45CC5)n3)nc2N2C[C@@H](C1)CC2(C)C", "note": "(stereo partly drawn)", "values": [{"measurement": "ring closure, isolated yield", "setting": "[1]; from CC(C)(C)CC(CNc1cccc(S(=O)(=O)NC(=O)c2ccc(-n3ccc(OCCC4C5(CC5)C45CC5)n3)nc2Cl)n1)C[C@@H]1CNC(C)(C)C1, K2CO3, DMSO, 73.6 mM, 120.0 °C, 20.0 h", "value": 44, "unit": "%"}]}, {"smiles": "CC(C)(C)CC1CNc2cccc(n2)S(=O)(=O)NC(=O)c2ccc(C(C)(C)C)nc2N2C[C@@H](C1)CC2(C)C", "note": "(stereo partly drawn)", "values": [{"measurement": "ring closure, isolated yield", "setting": "[1]; from CC(C)(C)CC(CNc1cccc(S(=O)(=O)NC(=O)c2ccc(C(C)(C)C)nc2F)n1)C[C@@H]1CNC(C)(C)C1, K2CO3, DMSO, 94.7 mM, 120.0 °C, 24.0 h", "value": 27, "unit": "%"}]}, {"smiles": "CC(C)(C)c1ccc2c(n1)N1C[C@@H](CCC(c3cc(Br)ccn3)Nc3cccc(n3)S(=O)(=O)NC2=O)CC1(C)C", "note": "(stereo partly drawn)", "values": [{"measurement": "ring closure, isolated yield", "setting": "[1]; from CC(C)(C)OC(=O)N1C[C@@H](CCC(Nc2cccc(S(=O)(=O)NC(=O)c3ccc(C(C)(C)C)nc3F)n2)c2cc(Br)ccn2)CC1(C)C, K2CO3, NMP, 77.8 mM, 150.0 °C, 2 steps", "value": 21, "unit": "%"}]}, {"smiles": "CC(C)(C)c1ccnc(C2CC[C@@H]3CN(c4cc(C(C)(C)C)c(Br)cc4C(=O)NS(=O)(=O)c4cccc(n4)N2)C(C)(C)C3)c1", "note": "(stereo partly drawn)", "values": [{"measurement": "ring closure, isolated yield", "setting": "[1]; from CC1(C)C[C@H](CCC(Nc2cccc(S(=O)(=O)NC(=O)c3cc(Br)c(C(C)(C)C)cc3F)n2)c2cc(C(C)(C)C)ccn2)CN1, Cs2CO3, DMSO, 58.3 mM, 150.0 °C, 96.0 h", "value": 17, "unit": "%"}]}, {"smiles": "CC(C)(C)c1ccnc(C2CC[C@@H]3CN(c4nc(-n5ccc(OCCC6C7(CC7)C67CC7)n5)ccc4C(=O)NS(=O)(=O)c4cccc(n4)N2)C(C)(C)C3)c1", "note": "(stereo partly drawn)", "values": [{"measurement": "ring closure, isolated yield", "setting": "[1]; from CC(C)(C)OC(=O)N1C[C@@H](CCC(Nc2cccc(S(=O)(=O)NC(=O)c3ccc(-n4ccc(OCCC5C6(CC6)C56CC6)n4)nc3Cl)n2)c2cc(C(C)(C)C)ccn2)CC1(C)C, K2CO3, NMP, 48.8 mM, 140.0 °C, 2 steps", "value": 44.5, "unit": "%"}]}, {"smiles": "CC(C)(C)c1ccnc(C2CC[C@@H]3CN(c4nc(C(C)(C)C)c(Br)cc4C(=O)NS(=O)(=O)c4cccc(n4)N2)C(C)(C)C3)c1", "note": "(stereo partly drawn)", "values": [{"measurement": "ring closure, isolated yield", "setting": "[1]; from CC(C)(C)OC(=O)N1C[C@@H](CCC(Nc2cccc(S(=O)(=O)NC(=O)c3cc(Br)c(C(C)(C)C)nc3Cl)n2)c2cc(C(C)(C)C)ccn2)CC1(C)C, K2CO3, NMP, 61.5 mM, 160.0 °C, 2 steps", "value": 56, "unit": "%"}]}, {"smiles": "CC(C)(C)c1ccnc(C2CC[C@H]3CCCN(C3)c3nc(C(C)(C)C)ccc3C(=O)NS(=O)(=O)c3cccc(n3)N2)c1", "note": "(stereo partly drawn)", "values": [{"measurement": "ring closure, isolated yield", "setting": "[1]; from CC(C)(C)c1ccnc(C(CC[C@H]2CCCNC2)Nc2cccc(S(=O)(=O)NC(=O)c3ccc(C(C)(C)C)nc3F)n2)c1, K2CO3, DMSO, 69.4 mM, 120.0 °C, 24.0 h", "value": 17, "unit": "%"}]}, {"smiles": "CC(C)(C)c1ccnc(C2CC[C@H]3CCN(C3)c3nc(C(C)(C)C)ccc3C(=O)NS(=O)(=O)c3cccc(n3)N2)c1", "note": "(stereo partly drawn)", "values": [{"measurement": "ring closure, isolated yield", "setting": "[1]; from CC(C)(C)c1ccnc(C(CC[C@H]2CCNC2)Nc2cccc(S(=O)(=O)NC(=O)c3ccc(C(C)(C)C)nc3F)n2)c1, K2CO3, DMSO, 77.9 mM, 120.0 °C, 2.0 h", "value": 54, "unit": "%"}]}, {"smiles": "CC1(C)CC2CN1c1nc(-n3ccc(OCCC4C5(CC5)C45CC5)n3)ccc1C(=O)NS(=O)(=O)c1cccc(n1)NCCC2CCc1ccccc1", "note": "(stereo not drawn)", "values": [{"measurement": "ring closure, isolated yield", "setting": "[1]; from CC1(C)CC(C(CCNc2cccc(S(=O)(=O)NC(=O)c3ccc(-n4ccc(OCCC5C6(CC6)C56CC6)n4)nc3Cl)n2)CCc2ccccc2)CN1, K2CO3, NMP, 64.5 mM, 150.0 °C, 20.0 h, 2 steps", "value": 61, "unit": "%"}]}, {"smiles": "CC1(C)C[C@@H]2CCC(c3ccccn3)Nc3cccc(n3)S(=O)(=O)NC(=O)c3ccc(-n4ccc(OCCC5(C(F)(F)F)CC5)n4)nc3N1C2", "note": "(stereo partly drawn)", "values": [{"measurement": "ring closure, isolated yield", "setting": "[1]; from CC1(C)C[C@H](CCC(Nc2cccc(S(=O)(=O)NC(=O)c3ccc(-n4ccc(OCCC5(C(F)(F)F)CC5)n4)nc3Cl)n2)c2ccccn2)CN1, K2CO3/3A MS, DMSO, 26.1 mM, 155.0 °C, 18.0 h, 2 steps", "value": 38, "unit": "%"}]}, {"smiles": "CC1(C)C[C@@H]2CCC(c3cncnc3)Nc3cccc(n3)S(=O)(=O)NC(=O)c3ccc(-n4ccc(OCCC5(C(F)(F)F)CC5)n4)nc3N1C2", "note": "(stereo partly drawn)", "values": [{"measurement": "ring closure, isolated yield", "setting": "[1]; from CC1(C)C[C@H](CCC(Nc2cccc(S(=O)(=O)NC(=O)c3ccc(-n4ccc(OCCC5(C(F)(F)F)CC5)n4)nc3Cl)n2)c2cncnc2)CN1, K2CO3/3A MS, DMSO, 49.2 mM, 155.0 °C, 18.0 h", "value": 28, "unit": "%"}]}, {"smiles": "CC1(C)C[C@@H]2CCCNc3cccc(n3)S(=O)(=O)NC(=O)c3ccc(-n4ccc(OCCC5C6(CC6)C56CC6)n4)cc3N1C2", "values": [{"measurement": "ring closure, isolated yield", "setting": "[1]; from CC1(C)C[C@H](CCCNc2cccc(S(=O)(=O)NC(=O)c3ccc(-n4ccc(OCCC5C6(CC6)C56CC6)n4)cc3F)n2)CN1, Cs2CO3, DMSO, 67.0 mM, 150.0 °C, 96.0 h", "value": 29, "unit": "%"}]}, {"smiles": "CC1(C)C[C@@H]2CCNCc3cccc(n3)S(=O)(=O)NC(=O)c3ccc(-n4ccc(OCCC5C6(CC6)C56CC6)n4)nc3N1C2", "values": [{"measurement": "ring closure, isolated yield", "setting": "[1]; from CC1(C)C[C@H](CCNCc2cccc(S(=O)(=O)NC(=O)c3ccc(-n4ccc(OCCC5C6(CC6)C56CC6)n4)nc3Cl)n2)CN1, K2CO3, DMSO, 57.3 mM, 120.0 °C, 24.0 h", "value": 3, "unit": "%"}]}, {"smiles": "CC1(C)CC(C2CC[C@@H]3CN(c4nc(C(C)(C)C)ccc4C(=O)NS(=O)(=O)c4cccc(n4)N2)C(C)(C)C3)CC(C)(C)O1", "note": "(mixture of isomers)", "values": [{"measurement": "ring closure, isolated yield", "setting": "[1]; from 6-tert-Butyl-N-[[6-[[3-[(3S)-5,5-dimethylpyrrolidin-3-yl]-1-(2,2,6,6-tetramethyltetrahydropyran-4-yl)propyl]amino]-2-pyridyl]sulfonyl]-2-fluoro-pyridine-3-carboxamide (Trifluoroacetic Acid (1)), K2CO3, DMF, 80.7 mM, 140.0 °C", "value": 48, "unit": "%"}]}, {"smiles": "CC(C)(C)c1ncc2c(n1)N1C[C@@H](CCCNc3cccc(n3)S(=O)(=O)NC2=O)CC1(C)C", "note": "[Compound 11, (14S)-8-tert-butyl-12,12-dimethyl-2λ^6-thia-3,7,9,11,18,23-hexaazatetracyclo[17.3.1.111,14.05,10]tetracosa-1(22),5,7,9,19(23),20-hexaene-2,2,4-trione]", "values": [{"measurement": "ring closure, isolated yield", "setting": "[1]; from 2-tert-Butyl-4-chloro-N-[[6-[3-[(3S)-5,5-dimethylpyrrolidin-3-yl]propylamino]-2-pyridyl]sulfonyl]pyrimidine-5-carboxamide (dihydrochloride salt), K2CO3/CsF, NMP, 123.1 mM, 150.0 °C", "value": 13, "unit": "%"}, {"measurement": "Corrector Assay A % activity", "setting": "[2]; % of chloride transport of triple combination control (1 μM (14S)-dispiro macrocycle + 3 μM tezacaftor + 300 nM ivacaftor)", "value": "++ (++ is 30-60%)"}, {"measurement": "EC50", "setting": "[2]; read-out: Corrector Assay A EC50, human intestinal enteroid cells, 18-24 h incubation, acute 10 μM forskolin + 300 nM ivacaftor", "value": "1000 to 3000", "unit": "nM"}]}, {"smiles": "CC1(C)C[C@@H]2CCCN(c3ccccc3)c3cccc(n3)S(=O)(=O)NC(=O)c3ccc(-n4ccc(OCCC5(C(F)(F)F)CC5)n4)nc3N1C2", "note": "[Compound 395, (14S)-12,12-dimethyl-18-phenyl-8-(3-{2-[1-(trifluoromethyl)cyclopropyl]ethoxy}-1H-pyrazol-1-yl)-2λ^6-thia-3,9,11,18,23-pentaazatetracyclo[17.3.1.111,14.05,10]tetracosa-1(23),5(10),6,8,19,21-hexaene-2,2,4-trione]", "values": [{"measurement": "ring closure, isolated yield", "setting": "[1]; from CC1(C)C[C@H](CCCN(c2ccccc2)c2cccc(S(=O)(=O)NC(=O)c3ccc(-n4ccc(OCCC5(C(F)(F)F)CC5)n4)nc3Cl)n2)CN1, K2CO3/3A MS, DMSO, 19.9 mM, 155.0 °C, 16.0 h, 2 steps", "value": 46, "unit": "%"}, {"measurement": "Corrector Assay B % activity", "setting": "[3]; % of chloride transport of triple combination control (3 μM Compound A + 3 μM tezacaftor + 300 nM ivacaftor)", "value": "++ (++ is 30-60%)"}, {"measurement": "EC50", "setting": "[3]; read-out: Corrector Assay B EC50, human intestinal enteroid cells, 18-24 h incubation, acute 10 μM forskolin + 300 nM ivacaftor", "value": "< 1000", "unit": "nM"}]}]}
